Experimental findings from ChEMBL document CHEMBL5728687, “Diazabicyclic substituted imidazopyrimidines and their use for the treatment of breathing disorders” (2021) are described below.

The experiment concerns the target Potassium channel subfamily K member 9 (Homo sapiens, UniProt Q9NPC2). In words: Inhibition of Recombinant TASK-1 and TASK-3 In Vitro: The investigations on the inhibition of the recombinant TASK-1 and TASK-3 channels were conducted using stably transfected CHO cells. The compounds according to the invention were tested in this case by application of 40 mM potassium chloride in the presence of a voltage-sensitive dye according to the method described in detail in the following references [Whiteaker et al., Validation of FLIPR membrane potential dye for high-throughput screening of potassium channel modulators, J. Biomol. Screen. 6 (5), 305-312 (2001); Molecular Devices FLIPR Application Note: Measuring membrane potential using the FLIPR® membrane potential assay kit on Fluorometric Imaging Plate Reader (FLIPR®) systems, http://www.moleculardevices.com/reagents-supplies/assay-kits/ion-channels/flipr-membrane-potential-assay-kits]. The activity of the test substances was determined as their ability to inhibit a depolarization induced in the recombinant cells by 40 mM potassium chloride. The concentration which can block half of this depolarization is referred to as IC50. The class given is cell-based.

Chain of Potassium channel subfamily K member 9 (Q9NPC2 whole entry): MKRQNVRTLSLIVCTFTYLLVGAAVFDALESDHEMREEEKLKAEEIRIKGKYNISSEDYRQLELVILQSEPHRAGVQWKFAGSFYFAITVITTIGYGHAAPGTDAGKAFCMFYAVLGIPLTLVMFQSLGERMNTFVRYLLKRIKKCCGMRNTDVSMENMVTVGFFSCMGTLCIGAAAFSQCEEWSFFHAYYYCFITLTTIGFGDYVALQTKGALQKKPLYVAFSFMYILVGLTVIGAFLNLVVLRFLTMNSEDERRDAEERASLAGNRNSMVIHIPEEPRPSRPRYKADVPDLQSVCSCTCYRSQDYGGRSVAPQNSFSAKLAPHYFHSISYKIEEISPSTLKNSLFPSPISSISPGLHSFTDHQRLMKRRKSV

In the case of `CNc1cccc(C(=O)N2C3CCC2CN(Cc2c(-c4ccc(Cl)cc4)nc4ncccn24)C3)n1`, the half-maximal inhibitory concentration (IC50) (commonly the midpoint of a concentration-inhibition curve) is 1500 nM.
